Literature values, collected in patent US20110318267A1, “PH-RESPONSIVE NANOSTRUCTURES” (PRESIDENT AND FELLOWS OF HARVARD COLLEGE, priority 2008, published 2011).

## C=C(C)C(=O)OCCN(C)C [DMAEMA, dimethylaminoethyl methacrylate]
  pKa: 7.5
